The values that follow come from US20260048036A1, “CRYSTALLINE FORMS OF A GLUCOSYLCERAMIDE SYNTHASE INHIBITOR AND USES THEREOF” (ACELINK THERAPEUTICS, INC., priority 2022, published 2026).

In this assay the target is T1, Glucosylceramide synthase (GCS) (Homo sapiens, UniProt Q16739).
T1 construct: The MDCK, K-562, and L6 cell lines all endogenously express GCS enzyme; host or cells: K-562 human leukemia cells, live
T1 sequence (Q16739 1-394): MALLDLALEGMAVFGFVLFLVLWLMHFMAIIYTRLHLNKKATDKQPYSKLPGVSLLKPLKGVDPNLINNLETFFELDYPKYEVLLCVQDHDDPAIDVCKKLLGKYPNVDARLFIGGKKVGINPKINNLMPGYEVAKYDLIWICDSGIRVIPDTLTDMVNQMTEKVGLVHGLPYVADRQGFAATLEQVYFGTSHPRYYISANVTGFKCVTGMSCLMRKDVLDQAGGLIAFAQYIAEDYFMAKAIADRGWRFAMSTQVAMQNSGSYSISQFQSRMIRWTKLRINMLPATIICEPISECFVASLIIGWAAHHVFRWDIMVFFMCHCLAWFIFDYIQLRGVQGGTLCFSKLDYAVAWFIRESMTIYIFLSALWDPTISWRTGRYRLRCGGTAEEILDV
Put plainly: GCS cell-based assay with live K-562 cells. Particulars: C6-NBD-glucosylceramide by LC-MS/MS. The text has this:
The reaction product, C6-NBD-glucosylceramide, could then be detected and quantified by LC-MS/MS. The inventors used this method to test and validate the effect of various GCS inhibitors on GCS enzyme activity from different species.
The GCS enzyme activity was detected by using the fluorescent substrate, C6-NBD-ceramide, and monitoring the formation of the fluorescent reaction product, C6-NBD-glucosylceramide. First, the inventors used cell lysate derived from a canine kidney cell line (MDCK, ATCC Cat #CCL-34™) as the source of GCS and tested the inhibitory activity of several control and test compounds.
The quantitative analysis of C6-NBD-glucosylceramide was performed on a Shimadzu ultra-fast liquid chromatography coupled with API 4000 mass spectrometer. Analyst 1.5 software packages were used to control the LC-MS/MS system, as well as for data acquisition and processing.
The C6-NBD-glucosylceramide reading was normalized first by dividing the peak area of C6-NBD-glucosylceramide with the peak area of the internal standard, and then the amount was calculated according to the standard curve generated in the same assay run. For the cell based assay results, the amount of C6-NBD-glucosylceramide was also normalized by the protein concentration of the cell samples. […]

As to `O=C(N[C@H](CN1CCCC1)[C@H](O)c1ccc(OC2CC2)c(Cl)c1)/C(=N\O)c1ccc2cc(Cl)ccc2c1` [Geometric isomer of Compound 1], the IC50 (usually the concentration that inhibits the measured activity by half) amounted to 14.8 nM.
